Values joined by “and” are separate entries in the source; they are usually repeats but may differ in a detail not shown here. Equal values may be shown once.
Tested on: 616215-338-R-J1-PDC tumor spheroids, viability
Assay: Anticancer human tumor 616215-338-R-J1-PDC patient-derived colon adenocarcinoma cell line growth inhibition [GQUAD]
Conditions: spheroids with HUVEC and MSC; for viability, T/C: stronger effect = lower value
Description: DNA G-quadruplex Stabilizer Agents in Combinations in Complex Spheroids
A high-throughput screen of multi-cell type tumor spheroids was designed to identify active combinations of DNA G-quadruplex stabilizer agents and targeted small molecules. Complex spheroids include a stromal component modeled by human endothelial cells (HUVEC) and fibroblasts modeled by human mesenchymal stem cells (MSCs). The concentration ranges selected for each drug and investigational agent were based upon clinically achievable concentrations if the clinical Cmax of the agent was known.
Compounds. The drugs and investigational agents: pidnarulex (CX-5461; NSC782164), APTO-253 (NSC789042), BRACO-19 (NSC847499), peposertib (NSC802822), ceralasertib (NSC780249), elimusertib (NSC800525), camonsertib (NSC841442), AZD-1390 (NSC803789), olaparib (NSC753686), talazoparib (NSC767125), ART-558 (NSC835418), sotorasib (NSC818433), MRTX-1133 (NSC836407), SN-38 (NSC673596), topotecan (NSC609699), etoposide (NSC141540), doxorubicin (NSC123127), gemcitabine (NSC613327), 5-fluorouracil (NSC19893), paclitaxel (NSC125973), vemurafenib (NSC761431), panobinostat (NSC761190), R-306465 (JNJ-16241199; NSC773264), adavosertib (NSC754352), TP-3654 (NSC805149), carboplatin (NSC241240), KSQ-4279 (NSC840948), and staurosporine (NSC755774) were obtained from the National Cancer Institute (NCI) Developmental Therapeutics Program Chemical Repository (34). The FDA-approved anticancer drug set is available from the NCI Developmental Therapeutics Program. […] The stock solutions were prepared in dimethyl sulfoxide (DMSO, Sigma-Aldrich, St. Louis, MO, cat. D2650) at 800-fold the tested concentration and stored at -70 degrees C prior to their use. All drugs and investigational agents were tested over a range starting from a high concentration at or near the clinical Cmax and decreasing in half-log increments. If the clinical Cmax for an agent had not been determined, the highest concentration tested was 10 microM.
2.3 Cell Culture. All cells were maintained in an incubator at 37 degrees C and 5% CO2 with 95% humidity. The PDC lines were cultured according to standard operating procedures established by the NCI PDMR. All PDCs were thawed and cultured in Matrigel-coated flasks prepared with a working solution of 1X Ham's F-12 nutrient mix, without supplementation (Invitrogen, cat. 11765054), 100 U/mL penicillin-streptomycin (Invitrogen, cat. 15140122), and 2.5% Matrigel (Corning Inc., cat. 354248) for the first three passages. The 857933-349-R-J2-PDC line was cultured in 6C/Colon 1B media, which includes advanced DMEM/F-12 (Thermo Fisher Scientific, cat. 12634028), 10 mM HEPES (Thermo Fisher Scientific, cat. 15630080), 1X GlutaMAX supplement (Thermo Fisher Scientific, cat. 35050061), 0.1 mg/mL primocin (InvivoGen, cat. ant-pm-2), 10% defined fetal bovine serum, heat inactivated (HyClone Laboratories Inc., cat. SH30070.03HI), 50% L-WRN conditioned media (ATCC, cat. CRL-3276), 1.25 mM N-Acetyl-L-cysteine (Sigma-Aldrich, cat. A9165), 10 mM nicotinamide (Sigma-Aldrich, cat. N0636), 1X B-27 supplement (Thermo Fisher Scientific, cat. 17504044), 1X N-2 supplement (Thermo Fisher Scientific, cat. 17502048), 10 microM Y-27632 dihydrochloride (Tocris Bioscience, cat. 1254), and 50 ng/mL human EGF recombinant protein (Thermo Fisher Scientific, cat. PHG0311). The 485176-168-R4-J1-PDC line was cultured in Panc media, which includes all 6C/Colon 1B media components plus 100 ng/mL human FGF-10 (Thermo Fisher Scientific, cat. 100-26), 500 nM SB-431542 (Selleckchem, cat. S1067), and gastrin (Tocris, cat. 3006).
[…]
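Also: spheroids exposed to agents for 7 days before readout.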
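For viability, T/C in this document: percent viability relative to DMSO vehicle control wells taken as 100%.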

Row | SMILES | viability, T/C (compound 0.0316 µM) | viability, T/C (compound 0.1 µM) | viability, T/C (compound 0.316 µM) | viability, T/C (compound 1 µM) | viability, T/C (compound 3.16 µM) | viability, T/C (compound 10 µM) | IC50 (curve of compound) | viability, T/C (compound 0.000999 µM) | viability, T/C (compound 0.00316 µM) | viability, T/C (compound 0.00999 µM) | viability, T/C (compound 0.0999 µM) | IC50 (compound alone, run of 04/22/2024) [nM]
1 | C#Cc1c(F)ccc2cc(O)cc(-c3ncc4c(N5CC6CCC(C5)N6)nc(OCC56CCCN5CC(F)C6)nc4c3F)c12 (stereo unspecified) | 100% and 113% and 106% | 90.1% and 98.3% and 110% | 102% and 104% and 110% | 80.2% and 106% and 104% | 68% and 106% and 91.7% | 45.8% and 63.5% and 59.2% | 8040 nM and > 10000 nM | – | – | – | – | –
2 | C=CC(=O)N1CCN(c2nc(=O)n(-c3c(C)ccnc3C(C)C)c3nc(-c4c(O)cccc4F)c(F)cc23)C(C)C1 (stereo unspecified) | 104% and 97.8% and 91.6% | 90.8% and 91.2% and 98.1% | 90.4% and 93.1% and 102% | 94.2% and 93.5% and 95.7% | 91.2% and 93.4% and 92.8% | 68.1% and 71.2% and 75.3% | > 10000 nM | – | – | – | – | –
3 | C=CCn1c(=O)c2cnc(Nc3ccc(N4CCN(C)CC4)cc3)nc2n1-c1cccc(C(C)(C)O)n1 | 106% and 108% and 101% | 94.6% and 98.4% and 92.7% | 53% and 53.7% and 76.8% | 24.1% and 24.6% and 28.5% | 13.3% and 13.7% and 23.5% | 12.5% and 12% and 23.2% | 367 nM and 381 nM and 601 nM | – | – | – | – | –
4 | CC(=O)O[C@H]1C(=O)[C@@]2(C)[C@H]([C@H](OC(=O)c3ccccc3)[C@]3(O)C[C@H](OC(=O)[C@H](O)[C@@H](NC(=O)c4ccccc4)c4ccccc4)C(C)=C1C3(C)C)[C@]1(OC(C)=O)CO[C@@H]1C[C@@H]2O | 18.6% and 23.3% and 49.7% | 15.1% and 16.7% and 22.2% | 14.9% and 20% and 21.1% | 18% and 14.6% and 17.4% | 13.8% and 14.9% and 15.3% | 13.3% and 15.2% and 14.8% | < 31.6 nM | – | – | – | – | –
5 | CC(C)(O)C1CCC(Nc2ccc3ncc(-c4cccc(C(F)(F)F)c4)n3n2)CC1 (stereo unspecified) | 103% and 105% (2×) | 92.2% and 90.8% and 100% | 108% and 95.6% and 93.2% | 16.1% and 27.9% and 33.8% | 0.52% and 1.27% and 3.2% | 12.4% and 1.83% and 2.83% | 631 nM and 686 nM and 729 nM | – | – | – | – | –
6 | CC(C)n1c(=O)n(C)c2cnc3cc(F)c(-c4ccc(OCCCN5CCCCC5)nc4)cc3c21 | 107% and 104% and 97.4% | 99% and 102% and 91.9% | 106% and 98.5% and 96.9% | 110% and 101% and 92.8% | 106% and 110% and 105% | 53% and 94.7% and 96.5% | > 10000 nM | – | – | – | – | –
7 | CC1COCCN1c1cc(-c2ccnn2C)c2ccnc(-c3ccn[nH]3)c2n1 (stereo unspecified) | 98.8% and 101% and 103% | 51.8% and 57% and 69.5% | 38.8% and 31.3% and 37% | 29.2% and 23.1% and 26.1% | 24.5% and 18.4% and 26.3% | 27.6% and 18.9% and 17.4% | 126 nM and 137 nM and 203 nM | – | – | – | – | –
8 | CC1COCCN1c1cc(C2(O)CC3CCC(C2)O3)c2cnn(-c3ccn[nH]3)c2n1 (stereo unspecified) | 95.2% and 102% and 99.8% | 60.7% and 60.2% and 55.6% | 45.5% and 31.8% and 40.3% | 34.9% and 39.4% and 31.6% | 21.1% and 23.5% and 21.3% | 23.2% and 16.9% and 12.9% | 217 nM and 171 nM and 175 nM | – | – | – | – | –
9 | CC1COCCN1c1cc(C2(S(C)(=N)=O)CC2)nc(-c2ccnc3[nH]ccc23)n1 (stereo unspecified) | 112% and 99% and 92.8% | 102% and 101% and 90.8% | 122% and 95% and 90% | 94.4% and 94.6% and 92.2% | 72.2% and 51.3% and 62.8% | 36% and 28.3% and 34.5% | 6340 nM and 3380 nM and 5330 nM | – | – | – | – | –
10 | CCCS(=O)(=O)Nc1ccc(F)c(C(=O)c2c[nH]c3ncc(-c4ccc(Cl)cc4)cc23)c1F | 100% (2×) and 106% | 103% and 95.3% and 98.6% | 97.9% and 100% and 97.8% | 97% and 88.9% and 91.9% | 89.7% and 88.8% and 104% | 3.68% and 3.75% and 6.39% | 5380 nM and 5350 nM and 5840 nM | – | – | – | – | –
11 | CC[C@@]1(O)C(=O)OCc2c1cc1n(c2=O)Cc2cc3c(CN(C)C)c(O)ccc3nc2-1 | 92.8% and 96.2% and 101% | – | 50.1% and 44.3% and 47.5% | – | – | – | > 316 nM and 273 nM and 297 nM | 106% and 109% and 103% | 93.6% and 97% and 92.9% | 92.7% and 99.7% and 101% | 97.8% and 89% and 91.2% | –
12 | CCc1c2c(nc3ccc(O)cc13)-c1cc3c(c(=O)n1C2)COC(=O)[C@]3(O)CC | 24.8% and 30.3% and 29.4% | – | 14.9% and 9.21% and 12.4% | – | – | – | 13.9 nM and 15.6 nM and 16.3 nM | 93.6% and 102% (2×) | 75.4% and 93.8% and 87.9% | 63.3% and 61.1% and 66.4% | 22% and 16.5% and 16.2% | –
13 | CN(C)c1ccc(Nc2c3ccc(NC(=O)CCN4CCCC4)cc3nc3cc(NC(=O)CCN4CCCC4)ccc23)cc1 | 105% [middle of 12 runs] | 104% [middle of 12 runs] | 102% [middle of 12 runs] | 100% [middle of 12 runs] | 99.6% [middle of 12 runs] | 93.9% [middle of 12 runs] | – | – | – | – | – | > 10000
